The values that follow are results of earlier work, collected in US9526785B2, “Pharmaceuticals for oral delivery” (Enteris BioPharma, Inc., priority 2013, dated 2016).

SMILES strings stand for the structures. Converted amounts (≈) assume the structure as drawn.

The data set concerns Methicillin-Resistant Staphylococcus aureus (MRSA), Stenotrophomonas maltophilia, Haemophilus influenzae, and Neisseria gonorrhoeae. Conditions: reported values; cited from earlier work.

Regarding `CN(C)c1cc(NC(=O)CNC(C)(C)C)c(O)c2c1C[C@H]1C[C@H]3[C@H](N(C)C)C(O)=C(C(N)=O)C(=O)[C@@]3(O)C(O)=C1C2=O` [Tigecycline], the MIC is 2 µg/mL (≈ 3.41 µM).
